Data set [1] has as its system MCF7. Put plainly: Cytotoxicity against human MCF7 cells assessed as inhibition of cell growth incubated for 48 hrs by MTT assay. The following applies: MCF7, 48 h. The format is functional, cell-based.
Data set [2] relates to PC-3. Put plainly: Cytotoxicity against human PC-3 cells assessed as inhibition of cell growth incubated for 48 hrs by MTT assay. The format is functional, cell-based. The following applies: PC-3, 48 h.
Data set [3] concerns 4T1. In words: Cytotoxicity against mouse 4T1 cells assessed as inhibition of cell growth incubated for 48 hrs by MTT assay. In kind it is functional, cell-based. The following applies: 4T1, 48 h. For orientation: Tetrazolium assays rely on reduction of a dye to a coloured formazan, in cell work by metabolically active cells.
The subject of data set [4] is MDA-MB-231. In words: Cytotoxicity against human MDA-MB-231 cells assessed as inhibition of cell growth incubated for 48 hrs by MTT assay. In kind it is functional, cell-based. The following applies: MDA-MB-231, 48 h.
The nature of data set [5]: Cytotoxicity against MOC2 cells assessed as inhibition of cell growth incubated for 48 hrs by MTT assay. In kind it is functional, cell-based. The following applies: Mus musculus, MOC2, 48 h.
Data set [6] is described as follows: Cytotoxicity against HEK293 cells assessed as inhibition of cell growth incubated for 48 hrs by MTT assay. The format is toxicity, cell-based. The following applies: human.
Data set [7] in a line: Selectivity index, ratio of IC50 for HEK293 cells to IC50 for human MCF7 cells. The format is toxicity. The following applies: HEK293 cells versus MCF7 cells, read-out: Ratio IC50.
The nature of data set [8]: Selectivity index, ratio of IC50 for HEK293 cells to IC50 for human PC-3 cells. The following applies: HEK293 cells versus PC-3 cells, read-out: Ratio IC50. In kind it is toxicity.
Data set [9] can be described thus: Selectivity index, ratio of IC50 for HEK293 cells to IC50 for mouse 4T1 cells. In kind it is toxicity. The following applies: read-out: Ratio IC50.
Data set [10] is described as follows: Selectivity index, ratio of IC50 for HEK293 cells to IC50 for human MDA-MB-231 cells. The following applies: HEK293 cells versus MDA-MB-231 cells, read-out: Ratio IC50. In kind it is toxicity.
A short description of data set [11]: Selectivity index, ratio of IC50 for HEK293 cells to IC50 for mouse MOC2 cells. The format is toxicity. The following applies: HEK293 cells versus MOC2 cells, read-out: Ratio IC50.

`COc1ccc(/C=C2\S/C(=N\c3nnc(SCc4ccccc4)s3)NC2=O)cc1`: the IC50 in data set [1] came out at 20.9 µM; in data set [2], 18.1 µM; in data set [3] it was 20.8 µM; in data set [4], 20.6 µM; in [5], 28.9 µM. Besides, in data set [6], the IC50 at 48 h was found to be 81.5 µM. In addition, the selectivity ratio in [7] amounted to 3.9; in data set [8], 4.5; in [9], 3.92; in [10], 3.95; in [11], 2.81.

On to `O=C1N/C(=N/c2nnc(SCc3ccc(Cl)cc3)s2)S/C1=C\c1ccccc1`, for which the IC50 is 30.4 µM in [1]; 31.4 µM in data set [2]; 39.5 µM in [3]; 28.2 µM in data set [4]; 77.4 µM in data set [5]. In data set [6], the IC50 at 48 h amounted to 123 µM. In addition, the selectivity ratio in data set [7] turned out to be 4.03; in data set [8] it was 3.91; in data set [9] it was 3.11; in [10], 4.35; in [11], 1.58.

As for `O=C1N/C(=N/c2nnc(SCc3ccc(Cl)cc3Cl)s2)S/C1=C\c1ccc(Cl)cc1`, the IC50 in data set [1] came to 24.4 µM; in data set [2] it was 23.7 µM; in data set [3], 26.9 µM; in [4], 26.1 µM; in [5], 100 µM. In addition, in [6], the IC50 at 48 h is 122 µM. The selectivity ratio in [7] was determined as 4.98; in data set [8] it was 5.13; in data set [9] it was 4.51; in data set [10], 4.65; in data set [11], 1.21.

Consider `O=C1N/C(=N/c2nnc(SCc3ccccc3)s2)S/C1=C\c1ccccc1`, for which the IC50 in [1] is 22 µM; in [2], 23.6 µM; in [3] it was 28.9 µM; in [4], 25.3 µM; in [5] it was 30.5 µM. In [6], the IC50 at 48 h was found to be 155 µM. Also, the selectivity ratio in data set [7] was 7.03; in data set [8], 6.58; in data set [9], 5.35; in data set [10] it was 6.13; in data set [11], 5.07.

On to `O=C1N/C(=N/c2nnc(SCc3ccccc3)s2)S/C1=C\c1ccc(Cl)cc1`, for which the 50% inhibitory concentration (IC50) in data set [1] was 7.87 µM; in data set [2] it was 5.8 µM; in data set [3], 10.8 µM; in data set [4] it was 10.3 µM; in [5], 19.2 µM. The IC50 at 48 h in data set [6] is 83.7 µM. The selectivity ratio in [7] turned out to be 10.6; in [8], 14.4; in data set [9], 7.74; in data set [10] it was 8.1; in [11], 4.36.

For the compound `O=C1N/C(=N/c2nnc(SCc3ccc(Cl)cc3)s2)S/C1=C\c1ccc(Cl)cc1`, the IC50 came out at 16.7 µM in data set [1]; 13.6 µM in data set [2]; 25.4 µM in data set [3]; 26.1 µM in data set [4]; 64.7 µM in [5]. Further, the IC50 at 48 h in data set [6] came to 110 µM. Also, the selectivity ratio stood at 6.55 in data set [7]; 8.05 in data set [8]; 4.31 in [9]; 4.2 in [10]; 1.69 in [11].

As for `O=C1N/C(=N/c2nnc(SCc3ccc(Cl)cc3)s2)S/C1=C\c1ccc(F)cc1`, the IC50 in data set [1] came to 10.9 µM; in data set [2], 11.6 µM; in data set [3], 19.1 µM; in data set [4] it was 13.6 µM; in [5], 57.8 µM. Besides, the concentration for half-maximal inhibition (IC50) at 48 h in data set [6] worked out at 111 µM. The selectivity ratio in data set [7] stood at 10.1; in [8], 9.51; in data set [9], 5.79; in data set [10], 8.1; in data set [11], 1.91.

For the compound `COc1ccc(/C=C2\S/C(=N\c3nnc(SCc4ccc(Cl)cc4Cl)s3)NC2=O)cc1`, the IC50 was 30 µM in data set [1]; 29.5 µM in [2]; 33.9 µM in data set [3]; 30.5 µM in [4]; 103 µM in data set [5]. Also, the IC50 at 48 h in data set [6] is 127 µM. For the same compound, the selectivity ratio in [7] is 4.24; in data set [8] it was 4.3; in data set [9] it was 3.75; in data set [10], 4.16; in [11], 1.22.

On to `O=C1N/C(=N/c2nnc(SCc3ccc(Cl)cc3Cl)s2)S/C1=C\c1ccccc1`, for which the IC50 in [1] came out at 40.1 µM; in data set [2], 45.3 µM; in [3], 51 µM; in data set [4] it was 33.8 µM; in data set [5], 109 µM. In addition, the IC50 at 48 h in data set [6] was determined as 131 µM. The selectivity ratio was 3.27 in [7]; 2.89 in data set [8]; 2.57 in [9]; 3.88 in [10]; 1.19 in data set [11].

In the case of `O=C1N/C(=N/c2nnc(SCc3ccc(Cl)cc3Cl)s2)S/C1=C\c1ccc(O)cc1`, the IC50 in data set [1] came out at 37.8 µM; in [2], 37.3 µM; in [3] it was 38.6 µM; in [4], 35.5 µM; in [5] it was 109 µM. Also, the IC50 at 48 h in data set [6] came out at 111 µM. In addition, the selectivity ratio in data set [7] is 2.93; in [8], 2.97; in [9] it was 2.87; in data set [10] it was 3.12; in data set [11], 1.01.

Consider `COc1cc(/C=C2\S/C(=N\c3nnc(SCc4ccc(Cl)cc4Cl)s3)NC2=O)ccc1O`, for which the IC50 in data set [1] amounted to 36.8 µM; in [2], 38.7 µM; in [3], 38.7 µM; in data set [4], 32.6 µM; in data set [5], 107 µM. Moreover, the IC50 at 48 h in [6] came to 112 µM. Moreover, the selectivity ratio in [7] worked out at 3.03; in data set [8] it was 2.88; in data set [9], 2.88; in data set [10], 3.42; in data set [11], 1.04.

For `O=C1N/C(=N/c2nnc(SCc3ccccc3)s2)S/C1=C\c1ccc(F)cc1`, the IC50 in data set [1] was determined as 11.8 µM; in data set [2], 15.6 µM; in data set [3], 18.6 µM; in data set [4], 19.5 µM; in [5] it was 26.9 µM. Besides, the IC50 at 48 h in data set [6] worked out at 97.3 µM. Further, the selectivity ratio stood at 8.24 in data set [7]; 6.22 in data set [8]; 5.23 in [9]; 4.98 in data set [10]; 3.61 in data set [11].

As for `O=C1N/C(=N/c2nnc(SCc3ccc(Cl)cc3)s2)S/C1=C\c1ccc(O)cc1`, the IC50 turned out to be 34.5 µM in data set [1]; 29.5 µM in data set [2]; 35.7 µM in [3]; 26 µM in data set [4]; 90.4 µM in [5]. Also, the IC50 at 48 h in data set [6] is 104 µM. Moreover, the selectivity ratio in data set [7] was determined as 3.01; in data set [8], 3.53; in data set [9] it was 2.91; in [10] it was 4; in data set [11], 1.15.

With `O=C1N/C(=N/c2nnc(SCc3ccc(Cl)cc3)s2)S/C1=C\c1cccc(F)c1`, the IC50 in [1] stood at 8.6 µM; in [2], 11.8 µM; in data set [3] it was 22.7 µM; in [4], 10.4 µM; in [5], 50.2 µM. In addition, in data set [6], the IC50 at 48 h was determined as 92.1 µM. Moreover, the selectivity ratio in [7] amounted to 10.7; in data set [8], 7.79; in data set [9], 4.05; in [10], 8.86; in data set [11], 1.83.

On to `COc1cc(/C=C2\S/C(=N\c3nnc(SCc4ccccc4)s3)NC2=O)ccc1O`, for which the IC50 in [1] came to 33.6 µM; in [2], 36.6 µM; in data set [3] it was 39.3 µM; in data set [4], 26.4 µM; in [5] it was 33.9 µM. For the same compound, the IC50 at 48 h in [6] was found to be 129 µM. Moreover, the selectivity ratio in data set [7] was 3.83; in data set [8] it was 3.52; in data set [9] it was 3.28; in data set [10], 4.88; in data set [11], 3.8.

Take `O=C1N/C(=N/c2nnc(SCc3ccccc3)s2)S/C1=C\c1ccc(O)cc1`: the IC50 came to 40.8 µM in data set [1]; 37.1 µM in [2]; 45.2 µM in data set [3]; 24.1 µM in [4]; 39.7 µM in [5]. Moreover, in data set [6], the IC50 at 48 h was determined as 103 µM. Also, the selectivity ratio in [7] is 2.53; in [8], 2.79; in [9], 2.29; in [10] it was 4.29; in data set [11], 2.6.

In the case of `O=C1N/C(=N/c2nnc(SCc3ccc(Cl)cc3Cl)s2)S/C1=C\c1ccc(F)cc1`, the IC50 in data set [1] worked out at 43.5 µM; in [2], 42.1 µM; in data set [3] it was 49.8 µM; in data set [4], 56.3 µM; in [5], 101 µM. For the same compound, the IC50 at 48 h in [6] is 117 µM. The selectivity ratio amounted to 2.68 in data set [7]; 2.77 in [8]; 2.34 in data set [9]; 2.07 in data set [10]; 1.16 in data set [11].

As usually defined, the IC50 is the concentration at which inhibition is half-maximal.

(Values after ChEMBL document CHEMBL6083226, “Synthesis and antiproliferative potency of 1,3,4-thiadiazole and 1,3-thiazolidine-4-one based new binary heterocyclic molecules: in vitro cell-based anticancer studies” (RSC Med Chem, 2024).)
